Values of other authors in patent US20160317610A1, “COMPOSITIONS AND METHODS FOR TREATING OVARIAN CANCER INCLUDING PREVENTING THE […]” (University of Southern California, priority 2013, published 2016).

Test system: advanced OC

For `CC(C)[C@H]1C(=O)N[C@@H](CCCN=C(N)N)C(=O)NCC(=O)N[C@@H](CC(=O)O)C(=O)N[C@H](Cc2ccccc2)C(=O)N1C` [Cilengitide, cyclo(L-Arg-Gly-L-Asp-D-Phe-N-methyl-L-Val)], the clinical efficacy is given as “failed to show clinical efficacy”.
